Our source for the Ki values is patent US8278343B2, “Pyrrolidines” (Pfizer Inc., priority 2008, dated 2012).

The assay deals with T1, recombinant human EP-2 receptor (Homo sapiens, UniProt P43116).
T1 construct: stably transfected with full length cDNA encoding human Prostaglandin E2; expressed in transfected cells
T1 sequence (P43116 whole entry): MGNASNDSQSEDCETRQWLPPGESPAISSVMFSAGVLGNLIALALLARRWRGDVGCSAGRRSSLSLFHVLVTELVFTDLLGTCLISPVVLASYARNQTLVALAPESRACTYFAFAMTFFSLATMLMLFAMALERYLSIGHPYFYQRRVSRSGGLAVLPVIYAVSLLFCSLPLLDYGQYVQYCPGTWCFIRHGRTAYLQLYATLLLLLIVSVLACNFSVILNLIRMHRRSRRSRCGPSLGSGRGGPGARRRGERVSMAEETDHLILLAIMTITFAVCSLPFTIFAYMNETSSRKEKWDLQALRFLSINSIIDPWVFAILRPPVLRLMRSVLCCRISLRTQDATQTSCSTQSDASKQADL
Kind of assay: In vitro antagonist potency against recombinant human prostaglandin E2 (EP-2) receptor in CHO cells (cAMP, Protocol 1). The conditions noted are these: CHO cells expressing recombinant human EP-2 receptor, stimulated with 5 nM PGE2; cAMP readout; Ki by Cheng-Prusoff equation; read-out: EP2 Ki. Format: cell-based. The procedure:
1.0 Measurement of In Vitro Antagonist Potency (IC50) of Compounds Against Recombinant Human Prostaglandin E2 Receptor in CHO Cells
The prostaglandin E2 (EP-2) receptor is Gs coupled and agonism of the receptor by PGE2 results in activation of intracellular adenylate cyclase enzymes that synthesise the second messenger signalling molecule, adenosine 3′,5′-cyclic monophosphate (cAMP). CHO cells expressing the recombinant human EP-2 receptor are stimulated with PGE2 (5 nM) equivalent to approximately […] values to give the maximal cAMP signal. Decreases in cAMP levels following treatment of stimulated recombinant EP-2 cells with potential antagonist compounds were measured and potency (IC50) calculated as follows.
A Chinese hamster ovary (CHO) cell line stably transfected with full length cDNA encoding human Prostaglandin E2 was established using standard molecular biology methods. Test compounds were dissolved in dimethyl sulphoxide (DMSO) at 4 mM. 11 point half log unit increment dilution series of test compound were prepared in DMSO then diluted 1 in 40 in a buffer comprised of phosphate buffered saline (PBS) and 0.05% pluronic F-127 surfactant. Freshly cultured cells at 80-90% confluence were harvested and re-suspended in 90% growth media/10% DMSO. The cells were frozen using a planar freezer and stored in frozen aliquots in cryovials in liquid nitrogen until the day of the experiment. A vial of cells was defrosted in a 37° C. water bath for 2 min, then transferred to 10 ml of Dulbecco's Modified Eagle's Medium (DMEM). The cells were then centrifuged for 5 min at 1000 g and the pellet re-suspended at 1,000,000 cells/ml in DMEM. 5,000 cells (5 ul) were added to 5 ul of the compound dilution series in a 384 well assay plate and pre-incubated for 30 min at 37° C. 5 ul of agonist (15 nM PGE2 in PBS to give 5 nM FAC) was added and plates further incubated for 90 min at 37° C. The relative cAMP concentration in each well was then measured using a β-galactosidase enzyme fragment complementation method purchased in kit form as the Discoverx cAMP II kit from GE Healthcare, UK. […] Sigmoidal curves were fitted to plots of log10 inhibitor concentration vs percent effect. IC50 estimates were determined as the concentration of test compound giving an effect half way between the bottom and top asymptotes of the sigmoidal dose response curve. Each experiment included an IC50 determination for the literature compound as a standard to track assay consistency and allow fair comparison between values obtained in different experiments. The EC50 of PGE2 is used in combination with the ligand concentration in the assay to determine Ki values for antagonist dose responses using the Cheng-Prusoff equation. Consequently an agonist dose response curve is carried out for each experiment using the same incubation as the antagonist plate.
Regarding `COc1ccccc1C(=O)N1CCC(COc2ccc(-c3ccc(F)cc3)cc2)(C(=O)O)C1` (single isomer, unassigned) [Example 68], the Ki stood at 0.0146 µM.

With `COc1ccc(NC(=O)N2CCC(COc3ccc(-c4ccc(F)cc4)cc3)(C(=O)O)C2)cc1` (single isomer, unassigned) [Example 96], the Ki is 0.178 µM.

For the molecule `COc1ccccc1C(=O)N1CCC(COc2ccc(-c3ccc(C#N)cc3)cc2)(C(=O)O)C1` (single isomer, unassigned) [Example 66], the Ki was found to be 0.0033 µM.

Regarding `O=C(Nc1ccc(Cl)cc1)N1CCC(COc2ccc(-c3ccc(F)cc3)cc2)(C(=O)O)C1` (single isomer, unassigned) [Example 102], the Ki stood at 0.16 µM.

For the molecule `O=C(C1CCC1)N1CCC(COc2ccc(-c3ccc(F)cc3)cc2)(C(=O)O)C1` (single isomer, unassigned) [Example 80], the Ki was found to be 0.344 µM.

For `COc1ccccc1C(=O)N1CCC(COc2ccc(-c3ccc(C#N)cc3)nc2)(C(=O)O)C1` (single isomer, unassigned) [Example 61], the Ki was 0.0262 µM.

For `O=C(C1CCCC1)N1CCC(COc2ccc(-c3ccc(F)cc3)cc2)(C(=O)O)C1` (single isomer, unassigned) [Example 82], the Ki was determined as 0.524 µM.

As to `COc1ccccc1C(=O)N1CCC(COc2ccc(-c3ccc(C#N)cc3)cc2)(C(=O)O)C1` (single isomer, unassigned) [Example 67], the Ki came to 0.0857 µM.

For `COc1ccc(C(=O)N2CCC(COc3ccc(-c4ccc(Cl)cn4)cc3)(C(=O)O)C2)cc1` (single isomer, unassigned) [Example 46], the Ki was determined as 0.0237 µM.

For the molecule `COc1ccc(C(=O)N2CCC(COc3ccc(-c4ccc(F)cc4)cc3)(C(=O)O)C2)cc1` (single isomer, unassigned) [Example 41], the Ki stood at 0.0669 µM.

`O=C(c1ccc(F)cc1)N1CCC(COc2cccc(F)c2F)(C(=O)O)C1` (single isomer, unassigned) [Example 14]: the inhibitory constant (Ki) was 0.522 µM.

With `O=C(c1ccc(F)cc1)N1CCC(COc2ccc(-c3ncc(Cl)cn3)cc2)(C(=O)O)C1` (single isomer, unassigned) [Example 15], the Ki was found to be 0.0847 µM.

As to `COc1ccccc1C(=O)N1CCC(COc2ccc(-c3ccc(F)cc3)nc2)(C(=O)O)C1` (single isomer, unassigned) [Example 76], the Ki amounted to 0.158 µM.

Consider `O=C(c1ccc(Cl)cc1)N1CCC(COc2cnc(-c3ccc(Cl)cc3)cn2)(C(=O)O)C1` (single isomer, unassigned) [Example 34], for which the Ki stood at 0.000743 µM.

As to `COc1ccc(C(=O)N2CCC(COc3ccc(-c4ccc(Cl)cc4)nc3)(C(=O)O)C2)cc1` (single isomer, unassigned) [Example 44], the Ki is 0.00383 µM.

Take `COc1ccc(C(=O)N2CCC(COc3ccc(-c4ncc(Cl)cn4)cc3)(C(=O)O)C2)cc1` (single isomer, unassigned) [Example 43]: the Ki amounted to 0.145 µM.

Turning to `COc1ccc(C(=O)N2CCC(COc3cnc(-c4ccc(Cl)cc4)cn3)(C(=O)O)C2)cc1` (single isomer, unassigned) [Example 39], the Ki was 0.0481 µM.

As to `O=C(C1CC1)N1CCC(COc2ccc(-c3ccc(F)cc3)cc2)(C(=O)O)C1` (single isomer, unassigned) [Example 84], the Ki was determined as 0.438 µM.

Regarding `COc1ccccc1C(=O)N1CCC(COc2ccc(-c3ncc(Cl)cn3)cc2)(C(=O)O)C1` (single isomer, unassigned) [Example 73], the Ki was 0.459 µM.

In the case of `CCOc1ccccc1C(=O)N1CCC(COc2cnc(-c3ccc(Cl)cc3)nc2)(C(=O)O)C1` (single isomer, unassigned) [Example 58], the Ki amounted to 0.884 µM.

With `O=C(c1ccc(Cl)cc1)N1CCC(COc2ccc(-c3ccc(F)cc3)cc2)(C(=O)O)C1` (single isomer, unassigned) [Example 36], the Ki is 0.00116 µM.

Take `O=C(C1CCC1)N1CCC(COc2ccc(-c3ccc(F)cc3)cc2)(C(=O)O)C1` (single isomer, unassigned) [Example 79]: the Ki was 0.0213 µM.

Take `O=C(c1ccc(Cl)cc1)N1CCC(COc2ccc(-c3ccc(Cl)cc3)nc2)(C(=O)O)C1` (single isomer, unassigned) [Example 32]: the Ki amounted to 0.000735 µM.

With `O=C(c1ccc(Cl)cc1)N1CCC(COc2ccc(-c3ncc(Cl)cn3)cc2)(C(=O)O)C1` (single isomer, unassigned) [Example 31], the Ki was found to be 0.282 µM.

`O=C(Nc1ccccc1F)N1CCC(COc2ccc(-c3ccc(F)cc3)cc2)(C(=O)O)C1` (single isomer, unassigned) [Example 104]: the Ki was found to be 0.392 µM.

On to `COc1ccccc1C(=O)N1CCC(COc2ccc(-c3ccc(Cl)cc3)nc2)(C(=O)O)C1` (single isomer, unassigned) [Example 70], for which the Ki was determined as 0.0227 µM.

Turning to `COc1ccc(C(=O)N2CCC(COc3ccc(-c4ccc(Cl)cn4)cc3)(C(=O)O)C2)cc1` (single isomer, unassigned) [Example 47], the Ki turned out to be 0.226 µM.

Regarding `N#Cc1ccc(-c2ccc(OCC3(C(=O)O)CCN(C(=O)c4ccc(F)cc4)C3)cc2)cc1` (single isomer, unassigned) [Example 2, 3-(4′-Cyano-biphenyl-4-yloxymethyl)-1-(4-fluoro-benzoyl)-pyrrolidine-3-carboxylic acid], the Ki stood at 0.000344 µM.

With `COc1ccccc1C(=O)N1CCC(COc2ccc(-c3ncc(F)cn3)cc2)(C(=O)O)C1` (single isomer, unassigned) [Example 63], the Ki came to 0.174 µM.

In the case of `COc1ccccc1C(=O)N1CCC(COc2ccc(-c3ncc(Cl)cn3)cc2)(C(=O)O)C1` (single isomer, unassigned) [Example 72], the Ki came out at 0.0255 µM.

Turning to `COc1ccccc1C(=O)N1CCC(COc2ccc(-c3ncc(C#N)cn3)cc2)(C(=O)O)C1` (single isomer, unassigned) [Example 65], the Ki came out at 0.175 µM.

On to `O=C(c1ccc(Cl)cc1)N1CCC(COc2cnc(-c3ccc(Cl)cc3)cn2)(C(=O)O)C1` (single isomer, unassigned) [Example 35], for which the Ki is 0.105 µM.

For the molecule `CCOc1ccccc1C(=O)N1CCC(COc2ccc(-c3ccc(F)cc3)cc2)(C(=O)O)C1` (single isomer, unassigned) [Example 53], the Ki amounted to 0.0175 µM.

Turning to `O=C(c1ccc(Cl)cc1)N1CCC(COc2ccc(-c3ncc(Cl)cn3)cc2)(C(=O)O)C1` (single isomer, unassigned) [Example 30], the Ki was found to be 0.000461 µM.

On to `O=C(c1ccc(F)cc1)N1CCC(COc2ccc(-c3ccc(F)cc3)cc2)(C(=O)O)C1` (single isomer, unassigned) [Example 17], for which the Ki was 0.00201 µM.

In the case of `O=C(C1CC1)N1CCC(COc2ccc(-c3ccc(F)cc3)cc2)(C(=O)O)C1` (single isomer, unassigned) [Example 83], the Ki came out at 0.119 µM.

For `N#Cc1ccc(-c2ccc(OCC3(C(=O)O)CCN(C(=O)c4ccc(Cl)cc4)C3)cc2)cc1` (single isomer, unassigned) [Example 27], the Ki was 0.00434 µM.

As to `COc1ccc(C(=O)N2CCC(COc3ccc(-c4ccc(Cl)cc4)nc3)(C(=O)O)C2)cc1` (single isomer, unassigned) [Example 45], the Ki came out at 0.17 µM.

As for `O=C(Oc1ccc(F)cc1)N1CCC(COc2ccc(-c3ccc(F)cc3)cc2)(C(=O)O)C1` (single isomer, unassigned) [Example 91], the Ki was 0.0374 µM.

Turning to `COc1ccc(C(=O)N2CCC(COc3ccc(-c4ccc(C#N)cc4)cc3)(C(=O)O)C2)cc1` (single isomer, unassigned) [Example 1, 3-(4′-Cyano-biphenyl-4-yloxymethyl)-1-(4-methoxy-benzoyl)-pyrrolidine-3-carboxylic acid], the Ki worked out at 0.000633 µM.

`O=C(c1ccc(F)cc1)N1CCC(COc2ccc(-c3ccc(F)cc3)cc2)(C(=O)O)C1` (single isomer, unassigned) [Example 18]: the Ki came to 0.0172 µM.

Consider `O=C(Nc1ccccc1Cl)N1CCC(COc2ccc(-c3ccc(F)cc3)cc2)(C(=O)O)C1` (single isomer, unassigned) [Example 100], for which the Ki was determined as 0.518 µM.

As to `COc1ccccc1C(=O)N1CCC(COc2cnc(-c3ccc(Cl)cc3)nc2)(C(=O)O)C1` (single isomer, unassigned) [Example 75], the Ki amounted to 0.504 µM.

Consider `CCOc1ccccc1C(=O)N1CCC(COc2cnc(-c3ccc(Cl)cc3)cn2)(C(=O)O)C1` (single isomer, unassigned) [Example 52], for which the Ki came out at 0.134 µM.
